Experiment [1] has as its target ADAMTS-4 recombinant protein (Homo sapiens (Human), UniProt O75173). Briefly: In vitro fluorescence (FRET-peptide) enzymatic assay of ADAMTS-4 activity. Format: biochemical. The note with it: FRET peptide substrate 15 μM, 10 nM enzyme, 37° C. 3 hours. How it is done: (§1) A FRET (fluorescence resonance energy transfer) peptide was cleaved by recombinant ADAMTS-4 or ADAMTS-5 proteins into two separate fragments resulting in an increase of fluorescence signal which was quantified. The peptide was 5-FAM-[…](5-TAMRA)K-NH2, customized from ANASPEC. ADAMTS-4 recombinant protein (catalog #4307-AD) and ADAMTS-5 recombinant protein (catalog #2198-AD) were purchased from R&D Systems.
(§2) An assay buffer containing 50 mM HEPES pH 7.5, 100 mM NaCl, 5 mM CaCl2, 0.1% CHAPS and 5% Glycerol was prepared. A volume of 2.5 μl of compound in the assay buffer was dispensed to a 384-well plate, and 2.5 μl of ADAMTS-4 or ADAMTS-5 protein (final concentration in the reaction was 10 nM) was added. The compounds and proteins were pre-incubated at room temperature for 15 minutes. Then, 5 μl of substrate was added to each well. The final substrate concentrations for ADAMTS-4 and ADAMTS-5 were 15 μM and 8 μM, respectively. The fluorescence signal in each well was determined, after incubation at 37° C. for 3 hours, on a TECAN plate reader (Excitation, 490 nm; Emission, 520 nm).
(§3) The data was inputted into GraphPad Prism, and the IC50 values were calculated using function “log (inhibitor) vs. response—Variable slope (four parameters)”. (See Table 1)

Experiment [2] deals with mouse femoral head cartilage. Briefly: Mouse explant assay (IL-1α induced GAG release). The class given is cell-based. The note with it: inhibition of GAG release, IL-1α 1 ng/ml, 72 hours; for inhibition at 2 µM: compound 2 μM; for inhibition at 20 µM: compound 20 μM. How it is done:
In this assay, fresh mouse femoral head cartilage was treated with IL-1α protein (Sigma-Aldrich, catalog #12778) in culture media, which induces the cartilage catabolism. Then, the GAGs attached to the cleaved aggrecan fragments (released in the media) and the GAGs attached to the intact aggrecan were measured by dimethylmethylene blue dye in the Glycosaminoglycans Assay Kit (Chondrex, catalog #6022).
Femoral head cartilage samples were isolated from mice (25 days old, male, C57BL/6, from Charles River Lab) and put into 2.0 ml tubes filled-up with media (DMEM, 10% FBS, 4 mM Glutamine, penicillin-streptomycin, 20 mM HEPES). Two hundred μl of media without FBS was added to each well of a 48-well plate, and one piece of cartilage was transferred to a well in the plate. Then the media was aspirated, and compounds and IL-1α protein were added to the plate in a total volume of 400 μl of fresh media without FBS. The final concentration of IL-1α was 1 ng/ml. The plate was incubated at 37° C. for 72 hours in a humidified incubator with 5% CO2 supply.
The supernatant was transferred to a 1.5 ml tube and kept at −20° C. Each cartilage sample was transferred to another 1.5 ml tube containing 400 μl of freshly made papain solution. The papain solution contained 125 μg/ml papain (Sigma-Aldrich, catalog #P3125), 0.1 M sodium acetate (Sigma-Aldrich, catalog #S7899), pH 5.5 and 5 mM EDTA and 5 mM L-cysteine-HCl (Sigma-Aldrich, catalog #C7880). The cartilage samples were kept rocking in a 60° C. water bath for 24 hours. The lysates were vortexed for 10 seconds and spinned at 10,000 rpm for 2 minutes.
Both the supernatant and the lysate samples were diluted with PBS and mixed with 100 μl of dye from the Glycosaminoglycans Assay Kit. The optical density from each well was determined with a TECAN plate reader set to a wavelength of 525 nm.
The concentrations of GAGs in the supernatant and lysates were determined based on the standard curve with a dose range of chondroitin sulfate provided in the kit. The percentage of GAG release was calculated as the following
The test compound effect was expressed as the percent of inhibition using the following formula: […]

Experiment [3] concerns the target T1, ADAMTS-5 recombinant protein (Homo sapiens (Human), UniProt Q9UNA0). The experiment can be described thus: In vitro fluorescence (FRET-peptide) enzymatic assay of ADAMTS-5 activity. Format: biochemical. The conditions noted are these: FRET peptide substrate 8 μM, 10 nM enzyme, 37° C. 3 hours. The method, then: as §1, §2, §3
For experiment [4], the target named is T1, ADAMTS-5 recombinant protein. Briefly: In vitro ELISA of ADAMTS-5 activity (Aggrecan-IGD enzymatic assay). Format: biochemical. The note with it: aggrecan-IGD substrate, ARGSVIL-peptide ELISA, 37° C. 45 minutes. How it is done: In this assay, the enzymatic activity of recombinant ADAMTS-5 protein (catalog #2198-AD, R&D Systems) was assayed with a protein substrate, the aggrecan IGD protein. The aggrecan IGD protein is a polypeptide connecting human aggrecan globular domains 1 and 2 (T331-G458) expressed in E. Coli with a C-terminal His-tag (catalog #30411000, BIOTEZ). The enzymatic product ARGSVIL-peptide was detected using an ELISA kit from BioTEZ (catalog #30510111).
An assay buffer containing 50 mM HEPES pH 7.5, 100 mM NaCl, 5 mM CaCl2), 0.1% CHAPS and 5% Glycerol was prepared. Recombinant ADAMTS-5 protein was diluted to 0.3 nM in the assay buffer. Ten μl of […] and 10 μl of compound solution was transferred to each well of a 96-well plate and incubated at room temperature for 15 minutes. Substrate aggrecan-IGD was diluted to 100 nM with the assay buffer and 20 μl was added to each well. The plate was incubated at 37° C. for 45 minutes. After incubation, the newly generated epitope ARGSVIL-peptides were measured using the Aggrecanase Activity ELISA Assay Kit following the manufacturer's instructions. Then, 100 μl of stop solution was added and the absorbance of each well was read at 450 nm, using […] as reference on a TECAN plate reader.
A standard curve of the ELISA assay was generated in GraphPad Prism using Sigmoidal 4PL function and the corresponding peptide concentrations were calculated based on the standard curve. The IC50 values were calculated using function “log (inhibitor) vs. response—Variable slope (four parameters)”. (See Table 2).
For orientation: An ELISA detects its analyte on a solid surface through an enzyme-linked reagent.

The structures appear in SMILES notation. pIC50: −log10 of the molar value.

ADAMTS-4 recombinant protein, sequence (O75173 213-685): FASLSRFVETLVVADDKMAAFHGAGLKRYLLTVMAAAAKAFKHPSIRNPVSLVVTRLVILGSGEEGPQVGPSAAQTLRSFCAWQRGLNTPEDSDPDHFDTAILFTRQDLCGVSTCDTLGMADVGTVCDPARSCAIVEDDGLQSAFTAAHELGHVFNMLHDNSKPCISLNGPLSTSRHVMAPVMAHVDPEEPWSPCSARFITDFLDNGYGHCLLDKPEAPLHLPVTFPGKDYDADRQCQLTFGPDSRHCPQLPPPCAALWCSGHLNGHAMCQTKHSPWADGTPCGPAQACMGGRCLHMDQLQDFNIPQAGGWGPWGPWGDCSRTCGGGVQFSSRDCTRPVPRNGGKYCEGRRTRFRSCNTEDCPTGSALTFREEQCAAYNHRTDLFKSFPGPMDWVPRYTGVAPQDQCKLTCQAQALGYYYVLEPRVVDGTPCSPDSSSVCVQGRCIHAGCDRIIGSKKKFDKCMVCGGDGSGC
T1 sequence (Q9UNA0 262-622): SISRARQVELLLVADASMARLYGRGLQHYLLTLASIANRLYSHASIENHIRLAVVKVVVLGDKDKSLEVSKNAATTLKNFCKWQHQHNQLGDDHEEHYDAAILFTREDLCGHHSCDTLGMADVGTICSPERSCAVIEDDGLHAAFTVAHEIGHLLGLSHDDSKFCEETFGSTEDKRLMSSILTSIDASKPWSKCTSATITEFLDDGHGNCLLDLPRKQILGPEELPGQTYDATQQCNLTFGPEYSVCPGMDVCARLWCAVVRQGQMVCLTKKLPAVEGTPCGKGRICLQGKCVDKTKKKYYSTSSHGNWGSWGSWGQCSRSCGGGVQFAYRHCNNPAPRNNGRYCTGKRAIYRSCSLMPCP

Take `O=C1NC(=O)[C@](CCC(=O)N2Cc3ccc(C(F)(F)F)cc3C2)(C2CC2)N1` [Example 1, (S)-5-cyclopropyl-5-(3-oxo-3-(5-(trifluoromethyl)isoindolin-2-yl)propyl)imidazolidine-2,4-dione]: the pIC50 is 7.22 in experiment [1], 7.06 in experiment [3] and 6.85 in experiment [4]. Moreover, testing at 2 µM in experiment [2] gave an inhibition of 27%. Besides, the inhibition at 20 µM in experiment [2] was found to be 61%.
Taken in the same sequence, the figures for `COc1ccc2c(c1)CCN(C(=O)CC[C@@]1(C3CC3)NC(=O)NC1=O)CC2` [Example 5, (S)-5-cyclopropyl-5-(3-(7-methoxy-4,5-dihydro-1H-benzo [d]azepin-3 (2H)-yl)-3-oxopropyl)imidazolidine-2,4-dione] were 7.34, 7.14, 6.62, 19% and 51%.
As for `CC1CN(C(=O)CC[C@@]2(C3CC3)NC(=O)NC2=O)CCc2ccc(Cl)cc21` (stereo partly drawn) [Example 8, (5S)-5-(3-(8-chloro-1-methyl-4,5-dihydro-1H-benzo[d]azepin-3 (2H)-yl)-3-oxopropyl)-5-cyclopropylimidazolidine-2,4-dione], the negative logarithm of the IC50 (pIC50) in experiment [1] is 7.18; in experiment [3], 7.28; in experiment [4] it was 6.89. In addition, in experiment [2], 2 µM produced 22% inhibition. In experiment [2], the inhibition at 20 µM came to 63%.
Regarding `O=C1NC(=O)[C@](CCC(=O)N2CCc3ccccc3CC2)(C2CC2)N1` [Example 9, (S)-5-cyclopropyl-5-(3-(4,5-dihydro-1H-benzo[d]azepin-3 (2H)-yl)-3-oxopropyl)imidazolidine-2,4-dione], the negative logarithm of the IC50 (pIC50) in experiment [1] was 7.38; in experiment [3] it was 7.43; in experiment [4], 7.25. The inhibition at 2 µM in experiment [2] turned out to be 22%. The same compound came in with an inhibition at 20 µM in experiment [2] of 55%.
For the compound `O=C1NC(=O)[C@](CCC(=O)N2Cc3cc(Cl)c(Cl)cc3C2)(C2CC2)N1` [Example 20, (S)-5-cyclopropyl-5-(3-(5,6-dichloroisoindolin-2-yl)-3-oxopropyl)imidazolidine-2,4-dione], in experiment [1], the pIC50 was 7.66. In experiment [2], this compound displayed an inhibition at 2 µM of 67% and an inhibition at 20 µM of 100%. Further, the pIC50 in experiment [3] was 7.43.
As to `C[C@H]1CN(C(=O)CC[C@@]2(C3CC3)NC(=O)NC2=O)CCc2ccc(Cl)cc21` [Example 21, (S)-5-(3-((R)-8-chloro-1-methyl-1,2,4,5-tetrahydro-3H-benzo[d]azepin-3-yl)-3-oxopropyl)-5-cyclopropylimidazolidine-2,4-dione], the negative logarithm of the IC50 (pIC50) in experiment [1] is 7.70. In experiment [2], this compound yielded an inhibition at 2 µM of 39% and an inhibition at 20 µM of 100%. For the same compound, in experiment [3], the negative-log IC50 (pIC50) was 7.80.
On to `O=C1NC(=O)[C@](CCC(=O)N2Cc3cc(Cl)c(C(F)(F)F)cc3C2)(C2CC2)N1` [Example 40, (S)-5-(3-(5-chloro-6-(trifluoromethyl)isoindolin-2-yl)-3-oxopropyl)-5-cyclopropylimidazolidine-2,4-dione], for which the pIC50 in experiment [1] is 7.38; in experiment [3], 7.60; in experiment [4], 7.04. This compound showed an inhibition at 2 µM in experiment [2] of 2%. For the same compound, the inhibition at 20 µM in experiment [2] was determined as 52%.
Taken in the same sequence, the figures for `O=C1NC(=O)C(CC(CO)C(=O)N2Cc3cc(Cl)c(Cl)cc3C2)(C2CC2)N1` (stereo not drawn) [Example 42, 5-cyclopropyl-5-(3-(5,6-dichloroisoindolin-2-yl)-2-(hydroxymethyl)-3-oxopropyl)imidazolidine-2,4-dione] were 7.96, 7.85, 7.77, 51% and 92%.
Turning to `Cn1ccnc1C1(CCC(=O)N2Cc3cc(Cl)c(C(F)(F)F)cc3C2)NC(=O)NC1=O` (stereo not drawn) [Example 73, 5-(3-(5-chloro-6-(trifluoromethyl)isoindolin-2-yl)-3-oxopropyl)-5-(1-methyl-1H-imidazol-2-yl)imidazolidine-2,4-dione], the results for the pIC50 in experiment [1], in experiment [3] and in experiment [4] were 7.21, 7.57 and 7.33, respectively.
In the same order, the values of `Cc1cc(C2(CCC(=O)N3Cc4cc(Cl)c(C(F)(F)F)cc4C3)NC(=O)NC2=O)no1` (stereo not drawn) [Example 75, 5-(3-(5-chloro-6-(trifluoromethyl)isoindolin-2-yl)-3-oxopropyl)-5-(5-methylisoxazol-3-yl)imidazolidine-2,4-dione] are 6.92, 7.12 and 6.96.
In the same order, the values of `Cc1cc(C2(CCC(=O)N3Cc4cc(Cl)c(C(F)(F)F)cc4C3)NC(=O)NC2=O)n[nH]1` (stereo not drawn) [Example 78, 5-(3-(5-chloro-6-(trifluoromethyl)isoindolin-2-yl)-3-oxopropyl)-5-(5-methyl-1H-pyrazol-3-yl)imidazolidine-2,4-dione] are 6.80, 7.24 and 7.12.
As to `O=C1NC(=O)C(CCC(=O)N2Cc3cc(Cl)c(C(F)(F)F)cc3C2)(c2ncccn2)N1` (stereo not drawn) [Example 79, 5-(3-(5-chloro-6-(trifluoromethyl)isoindolin-2-yl)-3-oxopropyl)-5-(pyrimidin-2-yl)imidazolidine-2,4-dione], the pIC50 in experiment [1] was 6.60; in experiment [3] it was 6.96; in experiment [4], 6.68.
Take `[2H]C1([2H])c2cc(Cl)c(Cl)cc2C([2H])([2H])N1C(=O)CC[C@@]1(C2CC2)NC(=O)NC1=O` [Example 80, (S)-5-cyclopropyl-5-(3-(5,6-dichloroisoindolin-2-yl-1,1,3,3-d4)-3-oxopropyl)imidazolidine-2,4-dione]: in experiment [1], the pIC50 is 7.55. In addition, in experiment [2], testing at 2 µM gave an inhibition of 30% and testing at 20 µM gave an inhibition of 73%. Besides, the pIC50 in experiment [3] is 7.49.
On to `Cc1nc(C2(CCC(=O)N3Cc4cc(Cl)c(C(F)(F)F)cc4C3)NC(=O)NC2=O)co1` (stereo not drawn) [Example 81, 5-(3-(5-chloro-6-(trifluoromethyl)isoindolin-2-yl)-3-oxopropyl)-5-(2-methyloxazol-4-yl)imidazolidine-2,4-dione], for which the negative-log IC50 (pIC50) in experiment [1] is 6.59; in experiment [3] it was 7.11; in experiment [4], 6.92.

Broadly, the pIC50 is −log10 of the IC50, conventionally taken in molar units. The inhibition is the change of the read-out against control, counted positive when it falls. A low value points to a response near the control.

The record behind these values is patent US20240299360A1, “ADAMTS INHIBITORS, PREPARATION METHODS AND MEDICINAL USES THEREOF” (Jiangsu Hengrui Pharmaceuticals Co., Ltd., priority 2020, published 2024).
